Test results from the NIST ThermoML archive (doi:10.1016/j.tca.2015.01.012).
“And” between values parts separate entries of the source, which are not always exact repeats. Identical values can stand only once.

Test: molar heat capacity at constant pressure
Conditions: 101.33 kPa, Crystal, Small (less than 1 g) adiabatic calorimetry

O=C(O)c1cccnc1 [3-carboxylpyridine]
Conditions	molar heat capacity at constant pressure
1 K	0.0015 J/K/mol
2 K	0.0121 J/K/mol
3 K	0.0409 J/K/mol
4 K	0.0968 J/K/mol
5 K	0.1891 J/K/mol
5.3 K	0.2521 J/K/mol
5.53 K	0.2833 J/K/mol
5.71 K	0.3119 J/K/mol
5.9 K	0.3323 J/K/mol
6 K	0.3359 J/K/mol
6.07 K	0.3625 J/K/mol
6.23 K	0.3927 J/K/mol
6.39 K	0.3921 J/K/mol
6.55 K	0.4232 J/K/mol
6.7 K	0.4579 J/K/mol
6.86 K	0.5025 J/K/mol
7 K	0.5397 J/K/mol
7.03 K	0.5557 J/K/mol
7.19 K	0.5983 J/K/mol
7.36 K	0.6211 J/K/mol
7.52 K	0.6706 J/K/mol
7.69 K	0.6993 J/K/mol
7.84 K	0.7188 J/K/mol
8 K	0.7924 J/K/mol and 0.8151 J/K/mol
8.17 K	0.8389 J/K/mol
8.34 K	0.8744 J/K/mol
8.51 K	0.9394 J/K/mol
8.68 K	1.001 J/K/mol
8.86 K	1.063 J/K/mol
9 K	1.099 J/K/mol
9.03 K	1.093 J/K/mol
9.21 K	1.135 J/K/mol
9.38 K	1.246 J/K/mol
9.56 K	1.315 J/K/mol
9.73 K	1.428 J/K/mol
9.92 K	1.479 J/K/mol
10 K	1.48 J/K/mol
10.17 K	1.542 J/K/mol
10.5 K	1.674 J/K/mol
10.82 K	1.86 J/K/mol
11.15 K	2.012 J/K/mol
11.48 K	2.15 J/K/mol
11.83 K	2.356 J/K/mol
12.19 K	2.553 J/K/mol
12.55 K	2.742 J/K/mol
12.92 K	2.969 J/K/mol
13.29 K	3.19 J/K/mol
13.67 K	3.425 J/K/mol
14.06 K	3.628 J/K/mol
14.45 K	3.87 J/K/mol
14.84 K	4.121 J/K/mol
15 K	4.221 J/K/mol
15.23 K	4.365 J/K/mol
15.63 K	4.629 J/K/mol
16.04 K	4.894 J/K/mol
16.44 K	5.19 J/K/mol
16.85 K	5.494 J/K/mol
17.27 K	5.794 J/K/mol
17.67 K	6.094 J/K/mol
18.09 K	6.421 J/K/mol
18.52 K	6.77 J/K/mol
18.95 K	7.125 J/K/mol
19.38 K	7.466 J/K/mol
19.82 K	7.809 J/K/mol
20 K	7.998 J/K/mol
20.68 K	8.601 J/K/mol
22 K	9.701 J/K/mol
23.36 K	10.88 J/K/mol
24.74 K	12.09 J/K/mol
25 K	12.34 J/K/mol
26.14 K	13.4 J/K/mol
27.57 K	14.79 J/K/mol
29.02 K	16.15 J/K/mol
30 K	17.11 J/K/mol
30.49 K	17.6 J/K/mol
31.97 K	18.99 J/K/mol
33.48 K	20.37 J/K/mol
34.99 K	21.77 J/K/mol
35 K	21.76 J/K/mol
36.53 K	23.11 J/K/mol
38.07 K	24.44 J/K/mol
39.63 K	25.75 J/K/mol
40 K	26.08 J/K/mol
41.2 K	27.05 J/K/mol
42.78 K	28.38 J/K/mol
44.36 K	29.6 J/K/mol
45 K	30.14 J/K/mol
45.95 K	30.92 J/K/mol
47.56 K	32.14 J/K/mol
49.17 K	33.43 J/K/mol
50 K	33.99 J/K/mol
50.79 K	34.59 J/K/mol
52.41 K	35.8 J/K/mol
54.04 K	36.96 J/K/mol
55.68 K	38.11 J/K/mol
57.33 K	39.19 J/K/mol
58.97 K	40.29 J/K/mol
60 K	40.99 J/K/mol
60.63 K	41.38 J/K/mol
62.28 K	42.42 J/K/mol
63.94 K	43.46 J/K/mol
65.61 K	44.41 J/K/mol
67.28 K	45.36 J/K/mol
68.95 K	46.38 J/K/mol
70 K	47 J/K/mol
70.62 K	47.37 J/K/mol
72.71 K	48.52 J/K/mol
75.22 K	49.8 J/K/mol
77.73 K	51.14 J/K/mol
80 K	52.23 J/K/mol
80.25 K	52.35 J/K/mol
80.98 K	52.79 J/K/mol
82.78 K	53.53 J/K/mol
84.21 K	54.31 J/K/mol
85.31 K	54.74 J/K/mol
86.73 K	55.5 J/K/mol
87.85 K	55.91 J/K/mol
89.25 K	56.68 J/K/mol
90 K	56.95 J/K/mol
90.39 K	57.08 J/K/mol
91.78 K	57.81 J/K/mol
94.31 K	59 J/K/mol
96.84 K	60.11 J/K/mol
99.38 K	61.16 J/K/mol
100 K	61.37 J/K/mol
101.92 K	62.18 J/K/mol
104.47 K	63.23 J/K/mol
107.02 K	64.34 J/K/mol
109.57 K	65.35 J/K/mol
110 K	65.59 J/K/mol
112.12 K	66.36 J/K/mol
114.68 K	67.47 J/K/mol
117.24 K	68.52 J/K/mol
119.81 K	69.55 J/K/mol
120 K	69.67 J/K/mol
122.39 K	70.55 J/K/mol
124.96 K	71.54 J/K/mol
127.53 K	72.56 J/K/mol
130 K	73.64 J/K/mol
130.1 K	73.62 J/K/mol
132.68 K	74.7 J/K/mol
135.26 K	75.71 J/K/mol
137.83 K	76.72 J/K/mol
140 K	77.53 J/K/mol
140.41 K	77.7 J/K/mol
142.99 K	78.8 J/K/mol
145.58 K	79.79 J/K/mol
148.16 K	80.74 J/K/mol
150 K	81.39 J/K/mol
150.75 K	81.72 J/K/mol
153.33 K	82.67 J/K/mol
155.92 K	83.7 J/K/mol
158.51 K	84.71 J/K/mol
160 K	85.26 J/K/mol
161.1 K	85.73 J/K/mol
163.71 K	86.79 J/K/mol
166.31 K	87.79 J/K/mol
168.9 K	88.81 J/K/mol
170 K	89.19 J/K/mol
171.49 K	89.87 J/K/mol
174.09 K	90.88 J/K/mol
176.68 K	91.97 J/K/mol
179.28 K	92.85 J/K/mol
180 K	93.23 J/K/mol
181.87 K	93.96 J/K/mol
184.47 K	95.03 J/K/mol
187.07 K	96.11 J/K/mol
189.66 K	97.14 J/K/mol
190 K	97.4 J/K/mol
192.26 K	98.33 J/K/mol
194.86 K	99.43 J/K/mol
197.45 K	100.6 J/K/mol
200 K	101.7 J/K/mol
200.05 K	101.7 J/K/mol
202.65 K	102.8 J/K/mol
205.28 K	104.1 J/K/mol
207.88 K	105.2 J/K/mol
210 K	106.3 J/K/mol
210.48 K	106.4 J/K/mol
213.09 K	107.6 J/K/mol
215.69 K	109 J/K/mol
218.3 K	110 J/K/mol
220 K	110.9 J/K/mol
220.91 K	111.3 J/K/mol
223.52 K	112.6 J/K/mol
226.13 K	113.8 J/K/mol
228.74 K	115.2 J/K/mol
230 K	115.8 J/K/mol
231.36 K	116.7 J/K/mol
233.98 K	117.7 J/K/mol
236.59 K	119.1 J/K/mol
239.21 K	120.4 J/K/mol
240 K	120.8 J/K/mol
241.83 K	121.8 J/K/mol
244.45 K	123.1 J/K/mol
247.11 K	124.5 J/K/mol
249.74 K	125.8 J/K/mol
250 K	125.8 J/K/mol
252.36 K	127.1 J/K/mol
254.98 K	128.5 J/K/mol
257.61 K	129.8 J/K/mol
260 K	131 J/K/mol
260.24 K	131.1 J/K/mol
262.86 K	132.5 J/K/mol
265.49 K	134 J/K/mol
268.12 K	135.3 J/K/mol
270 K	136.3 J/K/mol
270.75 K	136.7 J/K/mol
273.15 K	137.9 J/K/mol
273.38 K	138.2 J/K/mol
276.01 K	139.3 J/K/mol
278.63 K	140.8 J/K/mol
280 K	141.6 J/K/mol
281.26 K	142.3 J/K/mol
283.88 K	143.5 J/K/mol
286.5 K	144.8 J/K/mol
289.15 K	146.5 J/K/mol
290 K	146.9 J/K/mol
291.77 K	147.8 J/K/mol
294.38 K	149.3 J/K/mol
296.99 K	150.7 J/K/mol
298.15 K	151.3 J/K/mol
299.59 K	152.1 J/K/mol
300 K	152.3 J/K/mol
302.64 K	153.7 J/K/mol
306.07 K	155.5 J/K/mol
309.49 K	157.1 J/K/mol
310 K	157.7 J/K/mol
312.9 K	159 J/K/mol
316.3 K	161.2 J/K/mol
319.71 K	162.9 J/K/mol
320 K	163.1 J/K/mol
323.11 K	164.8 J/K/mol
326.5 K	166.8 J/K/mol
329.88 K	168.6 J/K/mol
330 K	168.5 J/K/mol
333.26 K	170.6 J/K/mol
336.64 K	172.4 J/K/mol
340 K	174 J/K/mol
343.36 K	175.7 J/K/mol
346 K	177.3 J/K/mol
346.71 K	177.4 J/K/mol
